In ChEMBL document CHEMBL1201862, “PubChem BioAssay data set” (2004):
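In this assay, cells in 96-well plates receive the compound at five concentrations for 48 hours. Endpoints are linearly interpolated between the surrounding concentrations. GI50: concentration for 50% inhibition of growth.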 The source made the active and inactive calls. Rule as the data show it: active = GI50 up to about 1.1 µM and inactive = higher.

Assays:
Assay in all cases: DTP human tumour cell line panel, 48 h
T47D = tested on: T47D
EKVX = tested on: EKVX
SK-MEL-5 = tested on: SK-MEL-5
SF-539 = tested on: SF-539
HOP-92 = tested on: HOP-92
Hs-578T = tested on: Hs-578T
UACC-62 = tested on: UACC-62
786-0 = tested on: 786-0
MDA-N = tested on: MDA-N
ACHN = tested on: ACHN
SR = tested on: SR
A549 = tested on: A549
MDA-MB-231 = tested on: MDA-MB-231
SNB-75 = tested on: SNB-75
KM12 = tested on: KM12
HCC 2998 = tested on: HCC 2998
OVCAR-3 = tested on: OVCAR-3
UO-31 = tested on: UO-31
OVCAR-5 = tested on: OVCAR-5
NCI-H522 = tested on: NCI-H522

SMILES	GI50 (T47D)	GI50 (EKVX)	GI50 (SK-MEL-5)	GI50 (SF-539)	GI50 (HOP-92)	GI50 (Hs-578T)	GI50 (UACC-62)	GI50 (786-0)	GI50 (MDA-N)	GI50 (ACHN)	GI50 (SR)	GI50 (A549)	GI50 (MDA-MB-231)	GI50 (SNB-75)	GI50 (KM12)	GI50 (HCC 2998)	GI50 (OVCAR-3)	GI50 (UO-31)	GI50 (OVCAR-5)	GI50 (NCI-H522)
CCCCCCCCCCCC(=O)OC[C@@H](C[As](=O)(O)O)OC(=O)CCCCCCCCCCC	12.6 µM (inactive)	13.7 µM (inactive)	1.82 µM (inactive)	12.6 µM (inactive)	1.71 µM (inactive)	3.93 µM (inactive)	2.52 µM (inactive)	13.4 µM (inactive)	4.29 µM (inactive)	3.01 µM (inactive)	7.36 µM (inactive)	14.2 µM (inactive)	3.52 µM (inactive)	3.82 µM (inactive)	5.02 µM (inactive)	7.57 µM (inactive)	4.19 µM (inactive)	14.8 µM (inactive)	16.3 µM (inactive)	2.47 µM (inactive)
CC(C)(C)OC(=O)CCCCCNC(=O)CCCCCNC(=O)CCC(CN(CC(=O)OCc1ccccc1)CC(=O)OCc1ccccc1)N(CC(=O)OCc1ccccc1)CC(=O)OCc1ccccc1 (stereo not given)	> 100 µM (inactive)	> 100 µM (inactive)	> 100 µM (inactive)	> 100 µM (inactive)	32.9 µM (inactive)	> 100 µM (inactive)	> 100 µM (inactive)	> 100 µM (inactive)	> 100 µM (inactive)	> 100 µM (inactive)	20.5 µM (inactive)	> 100 µM (inactive)	> 100 µM (inactive)	20.2 µM (inactive)	> 100 µM (inactive)	> 100 µM (inactive)	> 100 µM (inactive)	71.1 µM (inactive)	> 100 µM (inactive)	> 100 µM (inactive)
O=c1[nH]c(C23CC4CC(CC(C4)C2)C3)cc2c1c(=O)oc1ccccc12	8.89 µM (inactive)	0.32 µM (active)	4.6 µM (inactive)	4.53 µM (inactive)	1.04 µM (active)	1.1 µM (active)	13.4 µM (inactive)	1.61 µM (inactive)	12.8 µM (inactive)	2.92 µM (inactive)	0.366 µM (active)	2.83 µM (inactive)	3.4 µM (inactive)	2.53 µM (inactive)	14.5 µM (inactive)	5.31 µM (inactive)	4.42 µM (inactive)	1.61 µM (inactive)	4.82 µM (inactive)	2.58 µM (inactive)
Nn1c(SCC(=O)O)nc2ccccc2c1=O	> 100 µM (inactive)	> 100 µM (inactive)	> 100 µM (inactive)	> 100 µM (inactive)	> 100 µM (inactive)	> 100 µM (inactive)	> 100 µM (inactive)	> 100 µM (inactive)	> 100 µM (inactive)	> 100 µM (inactive)	> 100 µM (inactive)	> 100 µM (inactive)	> 100 µM (inactive)	> 100 µM (inactive)	> 100 µM (inactive)	> 100 µM (inactive)	> 100 µM (inactive)	> 100 µM (inactive)	> 100 µM (inactive)	> 100 µM (inactive)
Cc1cc(N(CCC#N)CCC#N)ccc1C(=N/NC(=O)c1cc(Cl)ccc1O)/N=N/c1cccc([N+](=O)[O-])c1	19.4 µM (inactive)	25.1 µM (inactive)	18.1 µM (inactive)	44.5 µM (inactive)	38.2 µM (inactive)	38.9 µM (inactive)	14.1 µM (inactive)	29 µM (inactive)	37 µM (inactive)	35.5 µM (inactive)	12.6 µM (inactive)	28 µM (inactive)	14.5 µM (inactive)	27.5 µM (inactive)	23.1 µM (inactive)	28.8 µM (inactive)	15.9 µM (inactive)	17.6 µM (inactive)	35 µM (inactive)	17.3 µM (inactive)
CCOc1cc2c(cc1OC(C)=O)C(=O)CC[C@H]1C3CC[C@H](OC(C)=O)[C@@]3(C)CC[C@H]21 (stereo not given in full)	> 100 µM (inactive)	> 100 µM (inactive)	> 100 µM (inactive)	> 100 µM (inactive)	> 100 µM (inactive)	> 100 µM (inactive)	> 100 µM (inactive)	> 100 µM (inactive)	> 100 µM (inactive)	> 100 µM (inactive)	> 100 µM (inactive)	> 100 µM (inactive)	> 100 µM (inactive)	> 100 µM (inactive)	> 100 µM (inactive)	> 100 µM (inactive)	> 100 µM (inactive)	> 100 µM (inactive)	> 100 µM (inactive)	> 100 µM (inactive)
C=C1C(=O)OC2CC(C)C3CC(O)OC(OCC)C3(C)CC12 (stereo not given)	16.6 µM (inactive)	23.7 µM (inactive)	15.5 µM (inactive)	18.1 µM (inactive)	16 µM (inactive)	23.1 µM (inactive)	> 37.6 µM (inactive)	10.2 µM (inactive)	17.5 µM (inactive)	15.4 µM (inactive)	13.6 µM (inactive)	41.6 µM (inactive)	17.5 µM (inactive)	15.5 µM (inactive)	20.6 µM (inactive)	16.8 µM (inactive)	15.3 µM (inactive)	22.3 µM (inactive)	20.2 µM (inactive)	7.03 µM (inactive)
CN(C)c1ccc(/C=C(\NC(=O)c2ccccc2)C2=NC(CCC(=O)O)C(=O)O2)cc1 (stereo not given)	> 50 µM (inactive)	> 50 µM (inactive)	> 48.3 µM (inactive)	> 35.2 µM (inactive)	> 50 µM (inactive)	> 50 µM (inactive)	> 50 µM (inactive)	> 50 µM (inactive)	> 50 µM (inactive)	> 50 µM (inactive)	49.2 µM (inactive)	> 50 µM (inactive)	> 50 µM (inactive)	> 50 µM (inactive)	42.8 µM (inactive)	> 50 µM (inactive)	> 50 µM (inactive)	> 50 µM (inactive)	> 50 µM (inactive)	17.1 µM (inactive)
Cc1cc(C)nc(NS(=O)(=O)c2ccc(NC(=O)c3ccc4nc5ccccc5c(Nc5ccc(S(=O)(=O)Nc6nc(C)cc(C)n6)cc5)c4c3)cc2)n1	46.7 µM (inactive)	> 100 µM (inactive)	> 100 µM (inactive)	88.3 µM (inactive)	23 µM (inactive)	69.7 µM (inactive)	66.4 µM (inactive)	> 100 µM (inactive)	91 µM (inactive)	> 100 µM (inactive)	39.7 µM (inactive)	> 100 µM (inactive)	20.8 µM (inactive)	> 100 µM (inactive)	30.3 µM (inactive)	61.8 µM (inactive)	> 100 µM (inactive)	> 100 µM (inactive)	> 100 µM (inactive)	25.5 µM (inactive)
C[N+](C)([O-])CCCNc1c2ccccc2nc2cccc([N+](=O)[O-])c12	0.257 µM (active)	0.28 µM (active)	0.161 µM (active)	1.07 µM (active)	0.31 µM (active)	0.938 µM (active)	0.219 µM (active)	0.166 µM (active)	0.173 µM (active)	0.324 µM (active)	0.0653 µM (active)	0.175 µM (active)	0.33 µM (active)	0.456 µM (active)	0.412 µM (active)	0.164 µM (active)	0.308 µM (active)	1.41 µM (inactive)	0.355 µM (active)	0.115 µM (active)
COc1ccc(CNNC(=O)c2cc[n+]([BH2-]C#N)cc2)cc1OC	> 100 µM (inactive)	> 100 µM (inactive)	> 100 µM (inactive)	> 100 µM (inactive)	> 100 µM (inactive)	> 100 µM (inactive)	> 100 µM (inactive)	> 100 µM (inactive)	> 100 µM (inactive)	> 100 µM (inactive)	> 100 µM (inactive)	> 100 µM (inactive)	> 100 µM (inactive)	> 100 µM (inactive)	> 100 µM (inactive)	> 100 µM (inactive)	> 100 µM (inactive)	> 100 µM (inactive)	> 100 µM (inactive)	> 100 µM (inactive)
